Experimental data from patent publication US20040024024A1, “Aromatic sulfone hydroxamates and their use as protease inhibitors” (priority 2001, published 2004).

Legend:
Human recombinant MMP-13 = target: T1, Human recombinant MMP-13 (Homo sapiens, UniProt P45452); assay: In vitro MMP inhibition, IC50 determination (fluorogenic substrate I); format: biochemical; conditions: value outside parenthesis
T1 construct: made in house; host or cells: baculovirus / insect cells
Outline: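 Fluorescence at 415 nm (excitation 328 nm) reports Gly-Leu cleavage of 4 μM quenched methoxycoumarin peptide substrate I. Human recombinant MMP-13, activated by trypsin or APMA, was incubated at room temperature with varied inhibitor concentrations in pH 7.5 Tris/NaCl/CaCl2 buffer; IC50 derived from reduced fluorescence.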

Human recombinant MMP-2 = target: T2, Human recombinant MMP-2 (Homo sapiens, UniProt P08253); assay: as above; format: biochemical; conditions: value outside parenthesis
T2 construct: made in house; host or cells: MMP-2-transfected p2AHT2 cells
T2 sequence (P08253 110-660): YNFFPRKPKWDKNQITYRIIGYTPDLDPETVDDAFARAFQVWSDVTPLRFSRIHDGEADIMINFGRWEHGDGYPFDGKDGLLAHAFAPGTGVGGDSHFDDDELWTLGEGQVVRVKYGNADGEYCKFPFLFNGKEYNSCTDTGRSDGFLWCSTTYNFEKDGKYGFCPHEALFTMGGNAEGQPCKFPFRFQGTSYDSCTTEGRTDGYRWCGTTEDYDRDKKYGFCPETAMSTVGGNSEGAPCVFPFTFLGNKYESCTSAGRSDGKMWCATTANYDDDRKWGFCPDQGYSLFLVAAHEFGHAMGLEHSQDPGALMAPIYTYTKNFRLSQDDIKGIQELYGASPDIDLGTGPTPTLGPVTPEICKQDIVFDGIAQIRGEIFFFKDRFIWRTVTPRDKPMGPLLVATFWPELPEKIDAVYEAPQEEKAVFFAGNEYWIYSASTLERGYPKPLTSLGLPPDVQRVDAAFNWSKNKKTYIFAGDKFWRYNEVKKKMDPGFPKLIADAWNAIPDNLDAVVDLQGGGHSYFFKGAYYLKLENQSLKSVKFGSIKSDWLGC
Outline: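 APMA- or trypsin-activated recombinant MMP-2 was incubated at room temperature with serial inhibitor dilutions in Tris buffer pH 7.5 (100 mM NaCl, 10 mM CaCl2, 0.05% Brij), with DMSO from 1% stocks, and 4 μM substrate I. Cleavage was read by fluorescence at 328/415 nm; IC50 was taken from the loss of fluorescence versus inhibitor concentration.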

Row | Compound | IC50 (Human recombinant MMP-13) [nM] | IC50 (Human recombinant MMP-2) [nM]
1 | O=C(NO)C1(S(=O)(=O)c2ccc(OCCCc3nc(-c4ccc(OC(F)(F)F)cc4)no3)cc2)CCN(Cc2ccccc2)CC1 [Example 93] | 15.5 | 747
2 | CC(C)c1ccc(-c2cccc(CCOc3ccc(S(=O)(=O)C4(C(=O)NO)CCOCC4)cc3)c2)cc1 [Example 109] | 152 | 5410
3 | O=C(NO)C1(S(=O)(=O)c2ccc(OCCc3cccc(-c4cc(F)cc(F)c4)c3)cc2)CCOCC1 [Example 110] | 7.6 | 1200
4 | O=C(NO)C1(S(=O)(=O)c2ccc(OCCc3cccc(-c4cccc(F)c4)c3)cc2)CCOCC1 [Example 111] | 2 | 559
5 | O=C(NO)C1(S(=O)(=O)c2ccc(OCCc3cccc(-c4ccc(OC(F)(F)F)cc4)c3)cc2)CCOCC1 [Example 112] | 37.9 | 66.4
6 | O=C(NO)C1(S(=O)(=O)c2ccc(OCCc3cccc(-c4ccccc4Cl)c3)cc2)CCOCC1 [Example 114] | 5.2 | 1010
7 | Cc1ccccc1-c1cccc(CCOc2ccc(S(=O)(=O)C3(C(=O)NO)CCOCC3)cc2)c1 [Example 116] | 11.2 | 1050
8 | Cc1ccc(-c2cccc(CCOc3ccc(S(=O)(=O)C4(C(=O)NO)CCOCC4)cc3)c2)cc1C [Example 117] | 16 | 1740
9 | Cc1cc(-c2cccc(CCOc3ccc(S(=O)(=O)C4(C(=O)NO)CCOCC4)cc3)c2)ccc1Cl [Example 118] | 29.8 | 1860
10 | COc1ccc(-c2cccc(CCOc3ccc(S(=O)(=O)C4(C(=O)NO)CCOCC4)cc3)c2)cc1C [Example 119] | 18.3 | 1190
11 | O=C(NO)C1(S(=O)(=O)c2ccc(OCCc3cccc(-c4ccc(Cl)c(Cl)c4)c3)cc2)CCOCC1 [Example 121] | 21.6 | 2470
12 | O=C(NO)C1(S(=O)(=O)c2ccc(OCCc3cccc(-c4ccc(Cl)cc4Cl)c3)cc2)CCOCC1 [Example 124] | 21.9 | 2150
13 | O=C(NO)C1(S(=O)(=O)c2ccc(OCCc3cccc(-c4cc(Cl)cc(Cl)c4)c3)cc2)CCOCC1 [Example 126] | 349 | 3260
14 | COCCN1CCC(C(=O)NO)(S(=O)(=O)c2ccc(OCCCc3nc(-c4ccc(CC(C)C)cc4C)no3)cc2)CC1 [Example 128] | 23.7 | 659
15 | NC(=O)c1cccc(-c2noc(CCCOc3ccc(S(=O)(=O)C4(C(=O)NO)CCN(C5CC5)CC4)cc3)n2)c1 [Example 129] | 1.9 | 41.4
16 | COCCN1CCC(C(=O)NO)(S(=O)(=O)c2ccc(OCCCc3nc(-c4ccc(Br)cc4C)no3)cc2)CC1 [Example 135] | 2.9 | 24.3
17 | O=C(NO)C1(S(=O)(=O)c2ccc(OCCCc3nc(C4CCCCC4)no3)cc2)CCN(C2CC2)CC1 [Example 137] | 7 | 20.4
18 | Cc1cc(-c2cccc(CCCOc3ccc(S(=O)(=O)C4(C(=O)NO)CCOCC4)cc3)c2)ccc1Cl [Example 166] | 136 | 3080
19 | Cc1cc(-c2cccc(CCCOc3ccc(S(=O)(=O)C4(C(=O)NO)CCOCC4)cc3)c2)ccc1F [Example 168] | 34.3 | 3430
20 | O=C(NO)C1(S(=O)(=O)c2ccc(OCCCc3cccc(-c4ccc(Cl)c(Cl)c4)c3)cc2)CCOCC1 [Example 169] | 70.7 | 4360
21 | O=C(NO)C1(S(=O)(=O)c2ccc(OCCCc3cccc(-c4ccc(F)c(F)c4)c3)cc2)CCOCC1 [Example 170] | 3.3 | 1610
22 | O=C(NO)C1(S(=O)(=O)c2ccc(OCCCc3cccc(-c4ccc(Cl)cc4Cl)c3)cc2)CCOCC1 [Example 171] | 62.8 | 2290
23 | O=C(NO)C1(S(=O)(=O)c2ccc(OCCCc3cccc(-c4cc(Cl)cc(Cl)c4)c3)cc2)CCOCC1 [Example 172] | 377 | 5160
24 | CCCCc1ccc(-c2noc(CCCOc3ccc(S(=O)(=O)C4(C(=O)NO)CCOCC4)cc3)n2)c(C)c1 [Example 183] | 21 | 708
25 | COCCN1CCC(C(=O)NO)(S(=O)(=O)c2ccc(OCCCc3nc(-c4ccc(C5(c6ccccc6)CC5)cc4)no3)cc2)CC1 [Example 185] | 12.4 | 84.7
26 | COCCN1CCC(C(=O)NO)(S(=O)(=O)c2ccc(OCCCc3nc(-c4cccc5ccccc45)no3)cc2)CC1 [Example 199] | 7.4 | 133
